Experimental data from patent publication US12527817B2, “Manufacturing of selenium disulfide compositions” (Azura Ophthalmics Ltd., priority 2020, dated 2026).

Test: Particle size analysis under a microscope (400x magnification)
Assay type: physicochemical
Settings: mixing liquid petrolatum at 60° C. with micronized SeS2, 400× microscope magnification
Experimental: FIG. 4 illustrates SeS2 formulation obtained mixing liquid petrolatum at a temperature of 60° C. with micronized SeS2 at 400× microscope magnification showing the presence of SeS2 particles larger than 25 microns.
FIG. 3 illustrates a 1% SeS2 (w/w) formulation obtained using the low temperature process.
The active ingredient was SeS2, wherein the particle size distribution D90 is less than 10 microns. The base medium was USP grade petrolatum. A reaction vessel capable of accepting a high shear mixing apparatus was charged with the USP grade petrolatum. In order to create uniform particles distribution in the petrolatum, high shear mixing was applied to disperse the particles. Addition of the active ingredients to the bulk while the whole bulk is agitated is essential in order to properly disperse the active ingredient, the high shear head was used to break the agglomerates to primary particles creating a uniform and homogeneous paste.

S=[Se]=S [SeS2, selenium disulfide]
SeS2 particle size: over 25 microns
